SMILES strings stand for the structures. Where two headings read alike, the source gives them in different places. Positions of bridges follow the written chain, without caps; N, C: chain ends. Non-standard residues stand in square brackets, D forms with d. Residues, ends and D or L forms follow the SMILES beside them. 1Nal = N[C@@H](Cc1cccc2ccccc12)C(=O)O; Lys(Me2) = CN(C)CCCC[C@H](N)C(=O)O

One test concerns the target hNav1.5 (Homo sapiens, UniProt Q14524). Put plainly: cell-based.
The next test addresses hNav1.3 (Homo sapiens, UniProt Q9NY46). Put plainly: cell-based. The following applies: IonWorks Quattro, read-out: IWQ Use Nav1.3. (The patch-clamp technique gives a direct electrical read-out from membranes.)
The mark [1] stands for this setting: IonWorks Quattro, Use, read-out: IWQ Use Nav1.5.

hNav1.3, sequence (Q9NY46 whole entry, looked up): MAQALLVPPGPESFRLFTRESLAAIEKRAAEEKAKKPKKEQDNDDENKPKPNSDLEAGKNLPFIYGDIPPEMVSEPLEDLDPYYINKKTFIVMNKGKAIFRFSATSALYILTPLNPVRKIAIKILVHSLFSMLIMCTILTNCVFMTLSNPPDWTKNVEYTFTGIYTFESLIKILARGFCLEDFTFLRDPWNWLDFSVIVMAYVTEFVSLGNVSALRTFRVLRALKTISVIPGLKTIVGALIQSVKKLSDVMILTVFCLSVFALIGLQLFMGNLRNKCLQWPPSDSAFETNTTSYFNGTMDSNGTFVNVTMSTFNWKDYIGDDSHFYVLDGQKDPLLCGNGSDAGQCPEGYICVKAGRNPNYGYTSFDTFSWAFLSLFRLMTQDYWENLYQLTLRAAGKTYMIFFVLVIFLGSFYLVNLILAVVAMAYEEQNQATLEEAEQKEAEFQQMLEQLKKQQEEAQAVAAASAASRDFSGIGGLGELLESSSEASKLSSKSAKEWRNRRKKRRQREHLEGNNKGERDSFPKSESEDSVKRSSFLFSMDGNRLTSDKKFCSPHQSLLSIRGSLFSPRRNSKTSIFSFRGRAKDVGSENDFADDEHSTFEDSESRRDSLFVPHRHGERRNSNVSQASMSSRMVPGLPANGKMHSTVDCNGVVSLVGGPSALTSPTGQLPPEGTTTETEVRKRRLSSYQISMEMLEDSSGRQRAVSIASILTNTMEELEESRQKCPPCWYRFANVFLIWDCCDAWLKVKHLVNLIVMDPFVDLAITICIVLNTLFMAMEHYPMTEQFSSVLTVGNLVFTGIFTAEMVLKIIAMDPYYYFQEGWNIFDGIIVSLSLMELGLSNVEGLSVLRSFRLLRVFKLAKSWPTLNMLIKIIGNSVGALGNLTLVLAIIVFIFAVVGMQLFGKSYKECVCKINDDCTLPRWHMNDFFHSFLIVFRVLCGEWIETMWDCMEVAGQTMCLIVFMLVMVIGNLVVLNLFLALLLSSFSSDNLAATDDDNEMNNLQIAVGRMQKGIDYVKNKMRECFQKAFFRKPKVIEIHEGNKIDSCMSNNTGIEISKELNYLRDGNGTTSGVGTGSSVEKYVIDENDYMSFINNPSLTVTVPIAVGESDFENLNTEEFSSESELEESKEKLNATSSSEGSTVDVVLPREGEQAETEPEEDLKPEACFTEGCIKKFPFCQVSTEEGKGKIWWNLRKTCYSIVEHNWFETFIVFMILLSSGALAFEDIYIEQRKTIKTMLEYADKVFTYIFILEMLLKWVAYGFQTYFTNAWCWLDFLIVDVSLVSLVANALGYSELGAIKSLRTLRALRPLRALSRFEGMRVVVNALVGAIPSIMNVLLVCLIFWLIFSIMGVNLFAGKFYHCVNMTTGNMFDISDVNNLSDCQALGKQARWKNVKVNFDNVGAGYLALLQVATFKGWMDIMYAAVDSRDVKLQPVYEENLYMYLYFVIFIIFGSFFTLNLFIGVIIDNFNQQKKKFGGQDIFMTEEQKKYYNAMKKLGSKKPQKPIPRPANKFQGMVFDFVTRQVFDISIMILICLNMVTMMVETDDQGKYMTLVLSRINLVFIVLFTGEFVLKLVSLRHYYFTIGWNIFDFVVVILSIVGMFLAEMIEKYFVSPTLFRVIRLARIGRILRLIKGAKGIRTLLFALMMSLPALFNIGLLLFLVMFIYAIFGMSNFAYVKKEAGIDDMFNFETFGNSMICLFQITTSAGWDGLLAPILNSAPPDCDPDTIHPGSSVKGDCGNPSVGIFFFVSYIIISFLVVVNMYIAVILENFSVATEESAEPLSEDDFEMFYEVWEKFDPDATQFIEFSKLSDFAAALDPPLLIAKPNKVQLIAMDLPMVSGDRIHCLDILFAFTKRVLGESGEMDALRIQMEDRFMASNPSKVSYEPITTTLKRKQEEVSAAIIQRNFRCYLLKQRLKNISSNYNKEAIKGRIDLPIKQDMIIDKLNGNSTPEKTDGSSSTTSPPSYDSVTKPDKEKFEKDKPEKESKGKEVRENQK
hNav1.5, sequence (Q14524 whole entry, looked up): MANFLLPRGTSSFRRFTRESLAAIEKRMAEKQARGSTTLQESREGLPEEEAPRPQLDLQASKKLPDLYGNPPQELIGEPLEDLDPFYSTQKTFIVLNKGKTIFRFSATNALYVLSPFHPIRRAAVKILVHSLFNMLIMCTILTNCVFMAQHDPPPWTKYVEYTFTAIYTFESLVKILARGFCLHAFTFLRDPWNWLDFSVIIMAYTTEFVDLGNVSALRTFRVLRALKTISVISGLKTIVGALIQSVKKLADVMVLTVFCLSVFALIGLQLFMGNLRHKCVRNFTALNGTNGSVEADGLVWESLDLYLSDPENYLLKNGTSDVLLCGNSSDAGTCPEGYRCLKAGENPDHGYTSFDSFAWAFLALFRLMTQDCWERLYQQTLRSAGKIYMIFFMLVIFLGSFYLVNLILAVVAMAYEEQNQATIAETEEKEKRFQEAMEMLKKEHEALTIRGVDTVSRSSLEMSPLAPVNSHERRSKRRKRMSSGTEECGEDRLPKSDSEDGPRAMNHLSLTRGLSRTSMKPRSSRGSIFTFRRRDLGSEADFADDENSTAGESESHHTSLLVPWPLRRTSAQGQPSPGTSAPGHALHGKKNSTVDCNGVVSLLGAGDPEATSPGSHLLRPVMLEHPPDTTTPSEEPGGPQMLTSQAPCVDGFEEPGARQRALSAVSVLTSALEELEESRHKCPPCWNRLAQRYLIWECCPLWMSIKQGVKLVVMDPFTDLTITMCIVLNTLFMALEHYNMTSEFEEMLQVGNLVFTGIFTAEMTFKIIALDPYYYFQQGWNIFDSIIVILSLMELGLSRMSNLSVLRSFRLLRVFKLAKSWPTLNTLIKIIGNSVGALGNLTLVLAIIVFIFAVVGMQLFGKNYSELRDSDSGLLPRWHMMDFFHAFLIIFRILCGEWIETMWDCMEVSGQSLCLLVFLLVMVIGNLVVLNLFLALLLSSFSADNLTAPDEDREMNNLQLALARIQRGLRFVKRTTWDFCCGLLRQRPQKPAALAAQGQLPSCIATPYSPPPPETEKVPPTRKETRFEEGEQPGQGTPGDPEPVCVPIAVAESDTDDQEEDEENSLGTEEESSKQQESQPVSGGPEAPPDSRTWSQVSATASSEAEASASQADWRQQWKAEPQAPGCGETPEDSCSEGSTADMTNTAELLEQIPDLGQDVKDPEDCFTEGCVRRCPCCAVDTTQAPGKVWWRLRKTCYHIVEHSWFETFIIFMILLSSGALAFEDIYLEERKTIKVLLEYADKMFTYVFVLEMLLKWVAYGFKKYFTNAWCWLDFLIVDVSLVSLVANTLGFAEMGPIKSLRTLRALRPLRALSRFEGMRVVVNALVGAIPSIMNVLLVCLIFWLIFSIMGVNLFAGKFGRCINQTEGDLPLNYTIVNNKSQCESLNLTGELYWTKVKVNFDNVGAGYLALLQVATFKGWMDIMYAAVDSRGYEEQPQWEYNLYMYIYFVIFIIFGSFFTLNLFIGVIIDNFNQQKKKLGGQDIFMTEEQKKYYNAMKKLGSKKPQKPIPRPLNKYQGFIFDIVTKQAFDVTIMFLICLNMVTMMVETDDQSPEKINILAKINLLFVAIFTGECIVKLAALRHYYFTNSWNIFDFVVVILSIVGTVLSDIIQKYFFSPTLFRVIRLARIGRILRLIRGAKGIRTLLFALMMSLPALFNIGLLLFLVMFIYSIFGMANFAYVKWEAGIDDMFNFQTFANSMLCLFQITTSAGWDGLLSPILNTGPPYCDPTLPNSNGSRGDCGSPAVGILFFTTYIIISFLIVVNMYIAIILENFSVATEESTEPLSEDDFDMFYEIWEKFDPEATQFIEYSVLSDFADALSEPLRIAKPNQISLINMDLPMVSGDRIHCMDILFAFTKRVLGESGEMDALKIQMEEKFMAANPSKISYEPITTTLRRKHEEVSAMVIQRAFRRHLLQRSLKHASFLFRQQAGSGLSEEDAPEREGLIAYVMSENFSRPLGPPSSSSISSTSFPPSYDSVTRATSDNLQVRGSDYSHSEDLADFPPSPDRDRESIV

Turning to `CC[C@H](C)[C@@H]1NC(=O)[C@@H]2CSSC[C@@H]3NC(=O)[C@H](C(C)C)NC(=O)[C@H](CC(C)C)NC(=O)[C@H](CC(N)=O)NC(=O)[C@@H]4CCCN4C(=O)[C@H](CCCNC(=N)N)NC(=O)[C@H](CSSC[C@H](NC(=O)[C@@H](N)CC(=O)O)C(=O)N[C@@H](CC(C)C)C(=O)NCC(=O)N[C@@H](Cc4ccccc4)C(=O)N[C@@H](CCSC)C(=O)N[C@@H](CCCNC(=N)N)C(=O)N[C@@H](CCCCN)C(=O)N2)NC(=O)[C@H](CSSC[C@@H](C(=O)N[C@@H](CCCCN)C(=O)N[C@@H](CCCNC(=N)N)C(=O)N[C@H](C(=O)N[C@@H](Cc2ccccc2)C(N)=O)C(C)C)NC(=O)[C@H](Cc2c[nH]c4ccccc24)NC(=O)[C@H](CCCCN)NC(=O)[C@H](Cc2cnc[nH]2)NC(=O)[C@H]([C@@H](C)O)NC(=O)[C@H](CCCNC(=N)N)NC(=O)[C@H](CO)NC3=O)NC(=O)[C@H](CCCCN)NC(=O)[C@H](CC(=O)O)NC(=O)[C@H](CC(N)=O)NC(=O)[C@H](CC(=O)O)NC(=O)[C@@H]2CCCN2C1=O` [compound 159] (H-DCLGFMRKCIPDNDKCCRPNLVCSRTHKWCKRVF-NH2; disulfide 2-17, 9-23, 16-30), the IC50 is 8.65 µM against hNav1.5 (IWQ Use Nav1.5 (μM)) and 870 nM on hNav1.3 (Table 25, use, […]).
On the same counts, the results for `CC[C@H](C)[C@@H]1NC(=O)[C@@H]2CSSC[C@@H]3NC(=O)[C@H](C(C)C)NC(=O)[C@H](CC(C)C)NC(=O)[C@H](CC(N)=O)NC(=O)[C@@H]4CCCN4C(=O)[C@H](CCCNC(=N)N)NC(=O)[C@H](CSSC[C@H](NC(=O)[C@@H](N)CC(=O)O)C(=O)N[C@@H](CC(C)C)C(=O)NCC(=O)N[C@@H](Cc4ccccc4)C(=O)N[C@@H](CCSC)C(=O)N[C@@H](CCCNC(=N)N)C(=O)N[C@@H](CCCCN)C(=O)N2)NC(=O)[C@H](CSSC[C@@H](C(=O)N[C@@H](CCCCN)C(=O)N[C@@H](Cc2cccc4ccccc24)C(=O)N[C@H](C(=O)N[C@@H](Cc2ccccc2)C(N)=O)C(C)C)NC(=O)[C@H](Cc2c[nH]c4ccccc24)NC(=O)[C@H](CCCCN)NC(=O)[C@H](Cc2cnc[nH]2)NC(=O)[C@H]([C@@H](C)O)NC(=O)[C@H](CCCNC(=N)N)NC(=O)[C@H](CO)NC3=O)NC(=O)[C@H](CCCCN)NC(=O)[C@H](CC(=O)O)NC(=O)[C@H](CC(N)=O)NC(=O)[C@H](CC(=O)O)NC(=O)[C@@H]2CCCN2C1=O` [compound 167] (H-DCLGFMRKCIPDNDKCCRPNLVCSRTHKWCK[1Nal]VF-NH2; disulfide 2-17, 9-23, 16-30) are 3.96 µM and 1 nM.
Turning to `CSCC[C@@H]1NC(=O)[C@H](Cc2ccccc2)NC(=O)CNC(=O)[C@H](CC(C)C)NC(=O)[C@@H](NC(=O)[C@@H](N)CC(=O)O)CSSC[C@@H]2NC(=O)[C@@H]3CSSC[C@@H](C(=O)N[C@@H](CCCCN)C(=O)N[C@@H](Cc4ccc(O)cc4)C(=O)N[C@H](C(=O)N[C@@H](Cc4ccccc4)C(N)=O)C(C)C)NC(=O)[C@H](Cc4c[nH]c5ccccc45)NC(=O)[C@H](CCCCN)NC(=O)[C@H](Cc4cnc[nH]4)NC(=O)[C@H]([C@@H](C)O)NC(=O)[C@H](CCCNC(=N)N)NC(=O)[C@H](CO)NC(=O)[C@H](CSSC[C@H](NC(=O)[C@H](CCCCN)NC(=O)[C@H](CCCNC(=N)N)NC1=O)C(=O)N[C@@H](Cc1ccc(O)cc1)C(=O)N1CCC[C@H]1C(=O)N[C@@H](CC(=O)O)C(=O)N[C@@H](CC(N)=O)C(=O)N[C@@H](CC(=O)O)C(=O)N[C@@H](CCCCN)C(=O)N3)NC(=O)[C@H](C(C)C)NC(=O)[C@H](CC(C)C)NC(=O)[C@H](CC(N)=O)NC(=O)[C@@H]1CCCN1C(=O)[C@H](CCCNC(=N)N)NC2=O` [compound 299] (H-DCLGFMRKCYPDNDKCCRPNLVCSRTHKWCKYVF-NH2; disulfide 2-17, 9-23, 16-30), the IC50 at hNav1.5 (setting [1]) was determined as 5.41 µM; at hNav1.3 (Use) it was 70 nM.
In the case of `CSCC[C@@H]1NC(=O)[C@H](Cc2ccccc2)NC(=O)CNC(=O)[C@H](CC(C)C)NC(=O)[C@@H](NC(=O)[C@@H](N)CC(=O)O)CSSC[C@@H]2NC(=O)[C@@H]3CSSC[C@@H](C(=O)N[C@@H](CCCCN)C(=O)N[C@@H](Cc4ccc(O)cc4)C(=O)N[C@H](C(=O)N[C@@H](Cc4ccccc4)C(N)=O)C(C)C)NC(=O)[C@H](Cc4c[nH]c5ccccc45)NC(=O)[C@H](CCCCN)NC(=O)[C@H](Cc4cnc[nH]4)NC(=O)[C@H]([C@@H](C)O)NC(=O)[C@H](CCCNC(=N)N)NC(=O)[C@H](CO)NC(=O)[C@H](CSSC[C@H](NC(=O)[C@H](CCCCN)NC(=O)[C@H](CCCNC(=N)N)NC1=O)C(=O)N[C@@H](C(C)C)C(=O)N1CCC[C@H]1C(=O)N[C@@H](CC(=O)O)C(=O)N[C@@H](CC(N)=O)C(=O)N[C@@H](CC(=O)O)C(=O)N[C@@H](CCCCN)C(=O)N3)NC(=O)[C@H](C(C)C)NC(=O)[C@H](CC(C)C)NC(=O)[C@H](CC(N)=O)NC(=O)[C@@H]1CCCN1C(=O)[C@H](CCCNC(=N)N)NC2=O` [compound 301] (H-DCLGFMRKCVPDNDKCCRPNLVCSRTHKWCKYVF-NH2; disulfide 2-17, 9-23, 16-30), the IC50 on hNav1.5 (setting [1]) was 7.88 µM; at hNav1.3 (Use), 90 nM.
Turning to `CSCC[C@@H]1NC(=O)[C@H](Cc2ccccc2)NC(=O)CNC(=O)[C@H](CC(C)C)NC(=O)[C@@H](NC(=O)[C@@H](N)CC(=O)O)CSSC[C@@H]2NC(=O)[C@@H]3CSSC[C@@H](C(=O)N[C@@H](CCCCN)C(=O)N[C@@H](Cc4ccc(O)cc4)C(=O)N[C@H](C(=O)N[C@@H](Cc4ccccc4)C(N)=O)C(C)C)NC(=O)[C@H](Cc4c[nH]c5ccccc45)NC(=O)[C@H](CCCCN)NC(=O)[C@H](Cc4cnc[nH]4)NC(=O)[C@H]([C@@H](C)O)NC(=O)[C@H](CCCNC(=N)N)NC(=O)[C@H](CO)NC(=O)[C@H](CSSC[C@H](NC(=O)[C@H](CCCCN)NC(=O)[C@H](CCCNC(=N)N)NC1=O)C(=O)N[C@@H](Cc1ccccc1)C(=O)N1CCC[C@H]1C(=O)N[C@@H](CC(=O)O)C(=O)N[C@@H](CC(N)=O)C(=O)N[C@@H](CC(=O)O)C(=O)N[C@@H](CCCCN)C(=O)N3)NC(=O)[C@H](C(C)C)NC(=O)[C@H](CC(C)C)NC(=O)[C@H](CC(N)=O)NC(=O)[C@@H]1CCCN1C(=O)[C@H](CCCNC(=N)N)NC2=O` [compound 302] (H-DCLGFMRKCFPDNDKCCRPNLVCSRTHKWCKYVF-NH2; disulfide 2-17, 9-23, 16-30), the results for the IC50 on hNav1.5 (setting [1]) and at hNav1.3 (Use) were 5.33 µM and 80 nM, respectively.
With `CSCC[C@@H]1NC(=O)[C@H](Cc2ccccc2)NC(=O)CNC(=O)[C@H](CC(C)C)NC(=O)[C@@H](NC(=O)[C@@H](N)CC(=O)O)CSSC[C@@H]2NC(=O)[C@@H]3CSSC[C@@H](C(=O)N[C@@H](CCCCN)C(=O)N[C@@H](Cc4ccc(O)cc4)C(=O)N[C@H](C(=O)N[C@@H](Cc4ccccc4)C(N)=O)C(C)C)NC(=O)[C@H](Cc4c[nH]c5ccccc45)NC(=O)[C@H](CCCCN)NC(=O)[C@H](Cc4cnc[nH]4)NC(=O)[C@H]([C@@H](C)O)NC(=O)[C@H](CCCNC(=N)N)NC(=O)[C@H](CO)NC(=O)[C@H](CSSC[C@H](NC(=O)[C@H](CCCCN)NC(=O)[C@H](CCCNC(=N)N)NC1=O)C(=O)N[C@@H](Cc1cnc[nH]1)C(=O)N1CCC[C@H]1C(=O)N[C@@H](CC(=O)O)C(=O)N[C@@H](CC(N)=O)C(=O)N[C@@H](CC(=O)O)C(=O)N[C@@H](CCCCN)C(=O)N3)NC(=O)[C@H](C(C)C)NC(=O)[C@H](CC(C)C)NC(=O)[C@H](CC(N)=O)NC(=O)[C@@H]1CCCN1C(=O)[C@H](CCCNC(=N)N)NC2=O` [compound 304] (H-DCLGFMRKCHPDNDKCCRPNLVCSRTHKWCKYVF-NH2; disulfide 2-17, 9-23, 16-30), the figures for the IC50 on hNav1.5 (setting [1]) and at hNav1.3 (Use) were 6.36 µM and 30 nM, respectively.
For the molecule `CSCC[C@@H]1NC(=O)[C@H](Cc2ccccc2)NC(=O)CNC(=O)[C@H](CC(C)C)NC(=O)[C@@H](NC(=O)[C@@H](N)CC(=O)O)CSSC[C@@H]2NC(=O)[C@@H]3CSSC[C@@H](C(=O)N[C@@H](CCCCN)C(=O)N[C@@H](Cc4ccc(O)cc4)C(=O)N[C@H](C(=O)N[C@@H](Cc4ccccc4)C(N)=O)C(C)C)NC(=O)[C@H](Cc4c[nH]c5ccccc45)NC(=O)[C@H](CCCCN)NC(=O)[C@H](Cc4cnc[nH]4)NC(=O)[C@H]([C@@H](C)O)NC(=O)[C@H](CCCNC(=N)N)NC(=O)[C@H](CO)NC(=O)[C@H](CSSC[C@H](NC(=O)[C@H](CCCCN)NC(=O)[C@H](CCCNC(=N)N)NC1=O)C(=O)N[C@@H](CO)C(=O)N1CCC[C@H]1C(=O)N[C@@H](CC(=O)O)C(=O)N[C@@H](CC(N)=O)C(=O)N[C@@H](CC(=O)O)C(=O)N[C@@H](CCCCN)C(=O)N3)NC(=O)[C@H](C(C)C)NC(=O)[C@H](CC(C)C)NC(=O)[C@H](CC(N)=O)NC(=O)[C@@H]1CCCN1C(=O)[C@H](CCCNC(=N)N)NC2=O` [compound 305] (H-DCLGFMRKCSPDNDKCCRPNLVCSRTHKWCKYVF-NH2; disulfide 2-17, 9-23, 16-30), the IC50 came to 4.64 µM at hNav1.5 (setting [1]) and 90 nM at hNav1.3 (Use).
For `CC[C@H](C)[C@@H]1NC(=O)[C@@H]2CSSC[C@@H]3NC(=O)[C@H](C(C)C)NC(=O)[C@H](CC(C)C)NC(=O)[C@H](CC(N)=O)NC(=O)[C@@H]4CCCN4C(=O)[C@H](CCCCN(C)C)NC(=O)[C@H](CSSC[C@H](NC(=O)[C@@H](N)CC(=O)O)C(=O)N[C@@H](CC(C)C)C(=O)NCC(=O)N[C@@H](Cc4ccccc4)C(=O)N[C@@H](CCSC)C(=O)N[C@@H](CCCNC(=N)N)C(=O)N[C@@H](CCCCN)C(=O)N2)NC(=O)[C@H](CSSC[C@@H](C(=O)N[C@@H](CCCCN)C(=O)N[C@@H](Cc2ccc(O)cc2)C(=O)N[C@H](C(=O)N[C@@H](Cc2ccccc2)C(N)=O)C(C)C)NC(=O)[C@H](Cc2c[nH]c4ccccc24)NC(=O)[C@H](CCCCN)NC(=O)[C@H](Cc2cnc[nH]2)NC(=O)[C@H]([C@@H](C)O)NC(=O)[C@H](CCCNC(=N)N)NC(=O)[C@H](CO)NC3=O)NC(=O)[C@H](CCCCN)NC(=O)[C@H](CC(=O)O)NC(=O)[C@H](CC(N)=O)NC(=O)[C@H](CC(=O)O)NC(=O)[C@@H]2CCCN2C1=O` [compound 314] (H-DCLGFMRKCIPDNDKCC[Lys(Me2)]PNLVCSRTHKWCKYVF-NH2; disulfide 2-17, 9-23, 16-30), the IC50 on hNav1.5 (setting [1]) is 6.55 µM; at hNav1.3 (Use), 80 nM.

These data come from US9340590B2 (priority 2011, dated 2016).
